Assays:
Conditions in all cases: 72 h
[1] = tested on: HepG2; assay: relative viability EC50 (midpoint between 100% and the lowest measured viability); higher = less toxic
[2] = tested on: Calu-3; assay: as above
[3] = tested on: U2OS; assay: as above
[4] = tested on: Caco-2; assay: as above
[5] = tested on: Vero E6; assay: as above
[6] = tested on: HepG2; assay: drug sensitivity score (DSS) for viability; higher = more toxic; extreme values may be limits of the assay
[7] = tested on: Calu-3; assay: as above
[8] = tested on: U2OS; assay: as above
[9] = tested on: Caco-2; assay: as above
[10] = tested on: Vero E6; assay: as above
[11] = tested on: HepG2; assay: cell viability relative to DMSO; higher = less toxic
[12] = tested on: Calu-3; assay: as above
[13] = tested on: U2OS; assay: as above
[14] = tested on: Caco-2; assay: as above
[15] = tested on: Vero E6; assay: as above

COc1ccc(S(=O)(=O)N2c3ccc(Cl)cc3[C@](O)(c3ccccc3Cl)[C@@H]2C(=O)N2CCC[C@H]2C(N)=O)cc1OC [relcovaptan]
relative viability EC50 [1]: > 10 µM
relative viability EC50 [2]: > 10 µM
relative viability EC50 [3]: > 10 µM
relative viability EC50 [4]: > 10 µM
relative viability EC50 [5]: > 10 µM
drug sensitivity score [6]: 0
drug sensitivity score [7]: 0
drug sensitivity score [8]: 0
drug sensitivity score [9]: 0
drug sensitivity score [10]: 0
cell viability ([11]; 1 nM): 108%
cell viability ([11]; 10 nM): 99.4%
cell viability ([11]; 100 nM): 108%
cell viability ([11]; 1000 nM): 98.8%
cell viability ([11]; 10000 nM): 94.3%
cell viability ([12]; 1 nM): 91.8%
cell viability ([12]; 10 nM): 100%
cell viability ([12]; 100 nM): 93.3%
cell viability ([12]; 1000 nM): 108%
cell viability ([12]; 10000 nM): 86.7%
cell viability ([13]; 1 nM): 103%
cell viability ([13]; 10 nM): 105%
cell viability ([13]; 100 nM): 102%
cell viability ([13]; 1000 nM): 105%
cell viability ([13]; 10000 nM): 99.2%
cell viability ([14]; 1 nM): 102%
cell viability ([14]; 10 nM): 102%
cell viability ([14]; 100 nM): 91.6%
cell viability ([14]; 1000 nM): 102%
cell viability ([14]; 10000 nM): 87.5%
cell viability ([15]; 1 nM): 103%
cell viability ([15]; 10 nM): 99.8%
cell viability ([15]; 100 nM): 92.4%
cell viability ([15]; 1000 nM): 97.2%
cell viability ([15]; 10000 nM): 97.5%

CC(C)(O)c1ccn2c(-c3ccc(F)c(-c4ccc(F)cc4C#N)c3)cnc2c1F [TP-003]
relative viability EC50 [1]: > 10 µM
relative viability EC50 [2]: > 10 µM
relative viability EC50 [3]: > 10 µM
relative viability EC50 [4]: > 10 µM
relative viability EC50 [5]: > 10 µM
drug sensitivity score [6]: 0
drug sensitivity score [7]: 0
drug sensitivity score [8]: 0
drug sensitivity score [9]: 0
drug sensitivity score [10]: 0
cell viability ([11]; 1 nM): 98.3%
cell viability ([11]; 10 nM): 96.4%
cell viability ([11]; 100 nM): 97.9%
cell viability ([11]; 1000 nM): 103%
cell viability ([11]; 10000 nM): 102%
cell viability ([12]; 1 nM): 106%
cell viability ([12]; 10 nM): 91.9%
cell viability ([12]; 100 nM): 102%
cell viability ([12]; 1000 nM): 114%
cell viability ([12]; 10000 nM): 92.7%
cell viability ([13]; 1 nM): 96.7%
cell viability ([13]; 10 nM): 94.1%
cell viability ([13]; 100 nM): 104%
cell viability ([13]; 1000 nM): 96.5%
cell viability ([13]; 10000 nM): 99.4%
cell viability ([14]; 1 nM): 98.7%
cell viability ([14]; 10 nM): 96%
cell viability ([14]; 100 nM): 93.6%
cell viability ([14]; 1000 nM): 103%
cell viability ([14]; 10000 nM): 95.6%
cell viability ([15]; 1 nM): 97.6%
cell viability ([15]; 10 nM): 99.1%
cell viability ([15]; 100 nM): 92.3%
cell viability ([15]; 1000 nM): 103%
cell viability ([15]; 10000 nM): 103%

CCNC(=O)NS(=O)(=O)c1sc(CC(C)C)cc1-c1ccc(Cn2c(-c3ccccc3)nc(OC)c2C=O)cc1 [AVE-0991]
relative viability EC50 [1]: > 10 µM
relative viability EC50 [2]: > 10 µM
relative viability EC50 [3]: > 10 µM
relative viability EC50 [4]: > 10 µM
relative viability EC50 [5]: > 10 µM
drug sensitivity score [6]: 0
drug sensitivity score [7]: 0
drug sensitivity score [8]: 0
drug sensitivity score [9]: 0
drug sensitivity score [10]: 0
cell viability ([11]; 1 nM): 102%
cell viability ([11]; 10 nM): 99.6%
cell viability ([11]; 100 nM): 101%
cell viability ([11]; 1000 nM): 108%
cell viability ([11]; 10000 nM): 102%
cell viability ([12]; 1 nM): 107%
cell viability ([12]; 10 nM): 104%
cell viability ([12]; 100 nM): 110%
cell viability ([12]; 1000 nM): 93.8%
cell viability ([12]; 10000 nM): 97.9%
cell viability ([13]; 1 nM): 104%
cell viability ([13]; 10 nM): 99.7%
cell viability ([13]; 100 nM): 103%
cell viability ([13]; 1000 nM): 100%
cell viability ([13]; 10000 nM): 102%
cell viability ([14]; 1 nM): 108%
cell viability ([14]; 10 nM): 97.5%
cell viability ([14]; 100 nM): 99.1%
cell viability ([14]; 1000 nM): 90.1%
cell viability ([14]; 10000 nM): 97.7%
cell viability ([15]; 1 nM): 99.9%
cell viability ([15]; 10 nM): 98.3%
cell viability ([15]; 100 nM): 97.7%
cell viability ([15]; 1000 nM): 93.3%
cell viability ([15]; 10000 nM): 96%

C[C@]12CCC(=O)C=C1CC[C@@H]1[C@@H]2[C@@H](O)C[C@@]2(C)[C@H]1CC[C@]2(O)C(=O)COC(=O)CCC(=O)O [hydrocortisone-hemisuccinate]
relative viability EC50 [1]: > 10 µM
relative viability EC50 [2]: > 10 µM
relative viability EC50 [3]: > 10 µM
relative viability EC50 [4]: > 10 µM
relative viability EC50 [5]: > 10 µM
drug sensitivity score [6]: 0
drug sensitivity score [7]: 0
drug sensitivity score [8]: 0
drug sensitivity score [9]: 0
drug sensitivity score [10]: 0
cell viability ([11]; 1 nM): 92.9%
cell viability ([11]; 10 nM): 113%
cell viability ([11]; 100 nM): 108%
cell viability ([11]; 1000 nM): 96.1%
cell viability ([11]; 10000 nM): 92.1%
cell viability ([12]; 1 nM): 93.6%
cell viability ([12]; 10 nM): 100%
cell viability ([12]; 100 nM): 101%
cell viability ([12]; 1000 nM): 101%
cell viability ([12]; 10000 nM): 95.9%
cell viability ([13]; 1 nM): 103%
cell viability ([13]; 10 nM): 101%
cell viability ([13]; 100 nM): 104%
cell viability ([13]; 1000 nM): 100%
cell viability ([13]; 10000 nM): 99.6%
cell viability ([14]; 1 nM): 104%
cell viability ([14]; 10 nM): 98.7%
cell viability ([14]; 100 nM): 101%
cell viability ([14]; 1000 nM): 106%
cell viability ([14]; 10000 nM): 111%
cell viability ([15]; 1 nM): 96.3%
cell viability ([15]; 10 nM): 96.8%
cell viability ([15]; 100 nM): 98.3%
cell viability ([15]; 1000 nM): 93.5%
cell viability ([15]; 10000 nM): 102%

O=C(O)c1cc(O)c2c(Cl)cc(Cl)cc2n1 [5,7-dichlorokynurenic-acid]
relative viability EC50 [1]: > 10 µM
relative viability EC50 [2]: > 10 µM
relative viability EC50 [3]: > 10 µM
relative viability EC50 [4]: > 10 µM
relative viability EC50 [5]: > 10 µM
drug sensitivity score [6]: 0
drug sensitivity score [7]: 0
drug sensitivity score [8]: 0
drug sensitivity score [9]: 0
drug sensitivity score [10]: 0
cell viability ([11]; 1 nM): 96.3%
cell viability ([11]; 10 nM): 99.3%
cell viability ([11]; 100 nM): 106%
cell viability ([11]; 1000 nM): 96.5%
cell viability ([11]; 10000 nM): 102%
cell viability ([12]; 1 nM): 105%
cell viability ([12]; 10 nM): 99.8%
cell viability ([12]; 100 nM): 98.8%
cell viability ([12]; 1000 nM): 110%
cell viability ([12]; 10000 nM): 112%
cell viability ([13]; 1 nM): 96%
cell viability ([13]; 10 nM): 98.2%
cell viability ([13]; 100 nM): 98.2%
cell viability ([13]; 1000 nM): 103%
cell viability ([13]; 10000 nM): 95.7%
cell viability ([14]; 1 nM): 98.7%
cell viability ([14]; 10 nM): 98.1%
cell viability ([14]; 100 nM): 96.1%
cell viability ([14]; 1000 nM): 92.1%
cell viability ([14]; 10000 nM): 96.8%
cell viability ([15]; 1 nM): 95.3%
cell viability ([15]; 10 nM): 96.4%
cell viability ([15]; 100 nM): 100%
cell viability ([15]; 1000 nM): 98.6%
cell viability ([15]; 10000 nM): 98.3%

CC(=O)[C@H]1CC[C@H]2[C@@H]3CC=C4C[C@@H](OC(=O)CCC(=O)O)CC[C@]4(C)[C@H]3CC[C@]12C [pregnenolone-succinate]
relative viability EC50 [1]: > 10 µM
relative viability EC50 [2]: > 10 µM
relative viability EC50 [3]: > 10 µM
relative viability EC50 [4]: > 10 µM
relative viability EC50 [5]: > 10 µM
drug sensitivity score [6]: 0
drug sensitivity score [7]: 0
drug sensitivity score [8]: 0
drug sensitivity score [9]: 0.3
drug sensitivity score [10]: 0
cell viability ([11]; 1 nM): 93.3%
cell viability ([11]; 10 nM): 93.8%
cell viability ([11]; 100 nM): 94.4%
cell viability ([11]; 1000 nM): 95%
cell viability ([11]; 10000 nM): 97%
cell viability ([12]; 1 nM): 89.8%
cell viability ([12]; 10 nM): 95.1%
cell viability ([12]; 100 nM): 93.7%
cell viability ([12]; 1000 nM): 94.1%
cell viability ([12]; 10000 nM): 113%
cell viability ([13]; 1 nM): 101%
cell viability ([13]; 10 nM): 94.7%
cell viability ([13]; 100 nM): 100%
cell viability ([13]; 1000 nM): 97.9%
cell viability ([13]; 10000 nM): 99.9%
cell viability ([14]; 1 nM): 90.5%
cell viability ([14]; 10 nM): 97.4%
cell viability ([14]; 100 nM): 110%
cell viability ([14]; 1000 nM): 94.2%
cell viability ([14]; 10000 nM): 87.7%
cell viability ([15]; 1 nM): 94.1%
cell viability ([15]; 10 nM): 96.8%
cell viability ([15]; 100 nM): 88.7%
cell viability ([15]; 1000 nM): 97.3%
cell viability ([15]; 10000 nM): 107%

CCO[C@@H]1OC(=O)C[C@@H]1NC(=O)[C@@H]1CCCN1C(=O)[C@@H](NC(=O)c1ccc(N)c(Cl)c1)C(C)(C)C [VX-765]
relative viability EC50 [1]: > 10 µM
relative viability EC50 [2]: > 10 µM
relative viability EC50 [3]: > 10 µM
relative viability EC50 [4]: > 10 µM
relative viability EC50 [5]: > 10 µM
drug sensitivity score [6]: 0.9
drug sensitivity score [7]: 0
drug sensitivity score [8]: 0
drug sensitivity score [9]: 0.3
drug sensitivity score [10]: 0
cell viability ([11]; 1 nM): 95.5%
cell viability ([11]; 10 nM): 103%
cell viability ([11]; 100 nM): 88.4%
cell viability ([11]; 1000 nM): 88.3%
cell viability ([11]; 10000 nM): 92.2%
cell viability ([12]; 1 nM): 111%
cell viability ([12]; 10 nM): 93.8%
cell viability ([12]; 100 nM): 90.5%
cell viability ([12]; 1000 nM): 95.5%
cell viability ([12]; 10000 nM): 98.6%
cell viability ([13]; 1 nM): 98.2%
cell viability ([13]; 10 nM): 104%
cell viability ([13]; 100 nM): 94.7%
cell viability ([13]; 1000 nM): 100%
cell viability ([13]; 10000 nM): 98.8%
cell viability ([14]; 1 nM): 97.7%
cell viability ([14]; 10 nM): 104%
cell viability ([14]; 100 nM): 117%
cell viability ([14]; 1000 nM): 98%
cell viability ([14]; 10000 nM): 86%
cell viability ([15]; 1 nM): 98.8%
cell viability ([15]; 10 nM): 102%
cell viability ([15]; 100 nM): 95.2%
cell viability ([15]; 1000 nM): 93.9%
cell viability ([15]; 10000 nM): 100%
